Measurements from the NIST ThermoML archive (doi:10.1021/je9008156).
Numbers after ± are expanded uncertainties.

Settings: Crystal; visual observation

Normal melting temperature: 193.00 ± 0.5 °C
SMILES: Nc1c(I)c(C(=O)NCC(O)CO)c(I)c(C(=O)NCC(O)CO)c1I (stereo unspecified)
